Experimental data as given in patent US20260250300A1, “POLYMORPHS AND THEIR USE FOR TREATING CANCER” (Cairn Therapeutics, Inc., priority 2023, published 2026).

Tests used:
Assay type in all cases: physicochemical
[1] = Stability study of crystalline Forms A and C at 25° C./60% RH and 40° C./75% RH, analysed by XRPD; details: after 4 weeks
Description: A sample of each of crystalline Forms A and C was placed in an uncapped vial and exposed to 25° C./60% RH and 40° C./75% relative humidity (“RH”) for 4 weeks (Table 24). The resultant samples were analyzed by XRPD at T=1, 2, and 4 weeks to evaluate their physical stability.
(§1) A Rigaku SmartLab X-Ray Diffractometer was configured in Bragg-Brentano reflection geometry equipped with a beam stop and knife edge to reduce incident beam and air scatter. No filter was used for crystalline Form C anhydrate crystalline Form E DMSO solvate. Spinning rate of 17 rpm was used for crystalline Form C anhydrate analysis. Other parameters are the same as described in Table 27.

[2] = Conversion rate of crystalline Form A hydrate to crystalline Form C anhydrate in ethanol at about 50° C., XRPD; details: slurry in absolute ethanol at about 50° C., 1 hour
Description: The conversion rate of the crystalline Form A hydrate to the crystalline Form C anhydrate in ethanol at about 50° C. was investigated (Table 25). Slurries were prepared using Compound 1 crystalline Form A hydrate as starting material. […] Each slurry was stirred magnetically at about 50° C. and subsequently vacuum filtered to collect the solid at given times. The resulting solids were analyzed by XRPD immediately. […] A Rigaku SmartLab X-Ray Diffractometer was configured in Bragg-Brentano reflection geometry equipped with a beam stop and knife edge to reduce incident beam and air scatter. […] Spinning rate of 17 rpm was used for crystalline Form C anhydrate analysis. Other parameters are the same as described in Table 27.

[3] = Relative stability of Form A hydrate and Form C anhydrate in ethanol and ethanol/water slurries
Description: The relative stability of the crystalline Form A hydrate and Compound 1 crystalline Form C anhydrate was evaluated in ethanol and ethanol/water between ambient temperature and 50° C.
Crystalline Form C anhydrate was prepared by slurrying crystalline Form A hydrate in absolute ethanol at 40° C. for about two days (Sample 1, FIG. 25A). Attempts to prepare amorphous material by cold precipitation and lyophilization were carried out but were unsuccessful. […] The lyophilization experiment produced material having an XRPD pattern consistent with crystalline Form E DMSO solvate (FIG. 25C).
To prepare the crystalline Form C anhydrate, 249 mg of Compound 1 crystalline Form A hydrate was placed in an 8 mL glass vial followed by 2.0 mL of absolute ethanol. The resulting slurry was stirred magnetically at 40° C. for about two days. The slurry was vacuum filtered and the solids allowed to air dry for 15 minutes at room temperature.

[4] = Slurry experiments using Compound 1 crystalline Form A hydrate in methanol and methanol:water, XRPD; details: two days, 30 mg
Description: The nature of this peak is unknown. […]
as §1

[5] = Dynamic vapor sorption (DVS) analysis; details: 25° C., 5 to 95% RH
Description: Different polymorphic forms of a compound may have different hygroscopic properties. […] A sample weight of less than 10 mg was loaded into a metal-coated quartz pan for analysis. The sample was analyzed at 25° C. after equilibrated to 5% relative humidity (RH) in 10% RH steps from 5 to 95% RH (adsorption cycle) and from 95 to 5% RH (desorption cycle). The movement from one step to the next occurred either after satisfying the equilibrium criterion of 0.01% weight change in 5 minutes or, if the equilibrium criterion was not met, after 90 minutes. The percent weight change values are calculated using Microsoft Excel®. The DVS analysis was carried out using a TA Instruments Q5000 Dynamic Vapor Sorption analyzer. […]

[6] = listed as Compound 1 crystalline Form A hydrate

Structure (SMILES)	crystalline Form conversion (physical stability) [1]	XRPD Result [2]	form conversion ([3]; absolute ethanol, about 40° C., about two days)	relative stability (form conversion) ([3]; ethanol and ethanol/water, between ambient temperature and 50° C.)	form conversion ([3]; ethanol at about 50° C., slurrying for four days)	XRPD Result ([4]; 95:5 MeOH:water)	XRPD Result ([4]; MeOH)	hygroscopicity (DVS) ([5]; listed as Compound 1 Crystalline Form A hydrate)	DVS weight gain [5, 6]	hygroscopicity (DVS) [5, 6]	DVS weight gain ([5]; listed as Compound 1 Crystalline Form C anhydrate)	DVS weight gain ([5]; listed as Compound 1 crystalline Form C anhydrate)
CN1Oc2cc3c(c4cccc(c24)C1=O)[C@H](CCl)CN3C(=O)c1cc2cc(NC(=O)c3cc4ccccc4[nH]3)ccc2[nH]1 [Crystalline Form A hydrate, (S)—N-(2-(10-(Chloromethyl)-5-methyl-4-oxo-5,8,9,10-tetrahydro-4H-pyrrolo[3′,2′: 5,6]naphtho[1,8-de][1,2]oxazine-8-carbonyl)-1H-indol-5-yl)-1H-indole-2-carboxamide]	No crystalline Form conversion was observed	converted to crystalline Form C anhydrate completely	converts to the crystalline Form C anhydrate	converted to the crystalline Form C anhydrate except when the water activity of the solvent was greater than 0.31	converted to crystalline Form C anhydrate	remained that of the crystalline Form A hydrate	remained that of the crystalline Form A hydrate	Slightly hygroscopic	less than 0.5%	slightly hygroscopic		
CN1Oc2cc3c(c4cccc(c24)C1=O)[C@H](CCl)CN3C(=O)c1cc2cc(NC(=O)c3cc4ccccc4[nH]3)ccc2[nH]1 [Crystalline Form C anhydrate, (S)—N-(2-(10-(Chloromethyl)-5-methyl-4-oxo-5,8,9,10-tetrahydro-4H-pyrrolo[3′,2′: 5,6]naphtho[1,8-de][1,2]oxazine-8-carbonyl)-1H-indol-5-yl)-1H-indole-2-carboxamide]											Weight gain of 0.35% at 5-95% RH	0.35%
